The text below walks through data of patent publication US9492462B2, “Composition for elastin production” (HUMAN MATRIX SCIENCES, LLC, priority 2007, dated 2016).

Each structure is given as a SMILES string.

Holding throughout (assay type): cell-based, human
Assay [1] has as its system skin biopsy explants derived from normal abdominal skin. The assay is described as follows: Organ culture of normal skin explants, Movat's pentachrome stain. Conditions: 10 days, 50 nM aldosterone alone or with 2 μM spironolactone. On the procedure:
In order to further test whether aldosterone and spironolactone would penetrate into skin tissue and affect elastogenesis, fragments of normal skin, stretch-marked skin and dermal scars were tested in organ culture system. Skin fragments were cut into multiple 1 mm^2 pieces and placed on top of metal grids immersed in culture medium containing 5% FBS and maintained for 10 days in the presence and absence of and then cultured for 7 days in the presence of 50 nM aldosterone, and 2 μM spironolactone, alone or in combinations, as described in figure legends. The media were changed every second day. All organ cultures were fixed in 1% buffered formalin and their transversal serial histological sections were stained with Movat's pentachrome as previously described in Hinek et al. “Proteolytic digest derived from bovine Ligamentum Nuchae stimulates deposition of new elastin-enriched matrix in cultures and transplants of human dermal fibroblasts” J Dermatol Sci. September 2005; 39(3):155-66 hereby incorporated by reference in it's entirety. Morphometric analysis was performed as described above. In each analyzed group (three explants from each patient) low-power fields (1 mm^2) of 20 serial sections stained with Movat's pentachrome were analyzed and all structures stained black (elastic fibers) were counted.

In assay [2] the test system is normal skin fibroblasts. The assay is described as follows: Elastin immunostaining in 7-day cultures of normal skin fibroblasts. Conditions: 7-day cultures. The procedure:
Biological effects of aldosterone and spironolactone were tested in cultures of dermal fibroblasts derived from normal skin, stretch-marked skin and dermal scars derived from Caucasian females, of different ages ranging from 30-38 years old. All fibroblasts were originally isolated by allowing them to migrate out of skin explants and then passaged by trypsinization and maintained in alpha-minimum essential medium supplemented with 20 mM Hepes, 1% antibiotics and antimycotics, 1% L-Glutamate and 2% fetal bovine serum (FBS) as previously described Hinek et al. “Impaired elastic-fiber assembly by fibroblasts from patients with either Morquio B disease or infantile GM1-gangliosidosis is linked to deficiency in the 67-kD spliced variant of beta-galactosidase.” Am J Hum Genet. 2000 July; 67(1):23-36 hereby incorporated by reference in its entirety. In all experiments, consecutive passages 3-4 were tested. Cells were densely plated (50×10^5 cells/dish) to reach confluency and then cultured for 7 days in the presence and absence of different concentrations of (10 nM-1 μM) aldosterone, 2 μM spironolactone, alone or in combinations with other reagents, as described in figure legends.
7-day-old cultures of fibroblasts, which produce abundant ECM, were assessed. All cultures were fixed in cold 100% methanol at −20° C. for 30 min, and then incubated for 1 hour with 2 μg/ml of polyclonal antibody to tropoelastin. Cultures were then incubated for an additional hour with appropriate fluorescein-conjugated secondary antibody (GAR-FITC). Nuclei were counterstained with propidium iodide. Morphometric analysis of five separate cultures in each experimental group, immunostained with antibodies recognizing extracellular matrix components, was performed using a computerized video analysis system (Image-Pro Plus software 3.0, Media Cybernetics, Silver Spring, Md.) as described previously in Hinek et al. “Decreased elastin deposition and high proliferation of fibroblasts from Costello syndrome are related to functional deficiency in the 67-kD elastin-binding protein.” Am J Hum Genet. 2000 March; 66(3):859-72 and Hinek and Wilson, “Impaired elastogenesis in Hurler disease: dermatan sulfate accumulation linked to deficiency in elastin-binding protein and elastic fiber assembly.” Am J Pathol. 2000 March; 156(3):925-38 both of which are hereby incorporated by reference in their entireties.

Assay [3] deals with collagen type I mRNA. The experiment in a line: Collagen type I mRNA level by one-step RT-PCR in normal skin fibroblasts. Conditions: 24 h; 50 nM and 1 μM aldosterone, alone or with 2 μM spironolactone. The procedure:
Fibroblasts were cultured to confluency in medium with 2% FBS and then in serum-free medium for 24 hours. The medium was changed again and cells were incubated for the next 24 hours in the presence and absence of in the presence of 50 nM and 1 μM aldosterone, and 2 μM spironolactone, alone or in combinations, as described in figure legend. At the end of the incubation period total RNA was extracted using the RNeasy Mini Kit, according to manufacturer's instructions. Steady-state levels of elastin mRNA were then analyzed by One-Step RT-PCR analysis. Briefly, 1 μg of total RNA was added to each one step RT-PCR (Qiagen One-Step RT-PCR Kit), and reactions were set up according to manufacturer's instructions in a total volume of 25 μl. The reverse transcription step was performed for elastin, and GAPDH reactions at 50° C. for 30 minutes, followed by 15 minutes at 95° C. The elastin PCR reaction (sense primer: [NT] ID NO: 1), antisense primer: [NT] ID NO: 2); designed to produce a 255 bp product) was performed under the following conditions: 25 cycles at 94° C. denaturation for 20 s, 63° C. annealing for 20 s, 72° C. extension for 1 min; 1 cycle at 72° C. final extension for 10 min. The collagen Type I PCR reaction (sense [NT] ID NO: 3), antisense primer: [NT] […]

Regarding `C[C@]12CCC(=O)C=C1CC[C@@H]1[C@@H]2[C@@H](O)C[C@]2(C=O)[C@@H](C(=O)CO)CC[C@@H]12` [aldosterone], in assay [1], the “elastic fibers / deposition of elastin (Movat's pentachrome)” value was “thicker and longer elastic fibers”. The “concentration of elastin (anti-elastin immunostaining)” value in assay [2] (10 nM, 50 nM, 1 μM aldosterone vs untreated) is reported as “increased in an aldosterone concentration specific manner”. Further, the “deposition of elastin (anti-elastin immunostaining)” value in assay [2] (50 ng/ml IGF-I, 50 nM aldosterone, alone or together, vs untreated control) is listed as “enhanced deposition of elastin”. Also, the “collagen type I mRNA (relative to GAPDH mRNA)” value in assay [3] is recorded as “net increase of collagen type I mRNA”.
